In patent US20260055079A1, “PHTHALAZINONE COMPOUNDS AS PARP7 INHIBITORS” (AZKARRA THERAPEUTICS, INC., priority 2022, published 2026):
Where two headings read alike, the source gives them in different places.

How the values were obtained:
[1] = system: NCI-H1373 (human lung adenocarcinoma) cells; assay: Cell proliferation assay (CellTiter-Glo), NCI-H1373; type: cell-based; conditions: read-out: NCI-H1373 GI50
[2] = target: His-GST-PARP7 (Homo sapiens (Human), UniProt Q7Z3E1); assay: PARP7 biochemical assay; conditions: read-out: PARP7 IC50
His-GST-PARP7, sequence (Q7Z3E1 whole entry): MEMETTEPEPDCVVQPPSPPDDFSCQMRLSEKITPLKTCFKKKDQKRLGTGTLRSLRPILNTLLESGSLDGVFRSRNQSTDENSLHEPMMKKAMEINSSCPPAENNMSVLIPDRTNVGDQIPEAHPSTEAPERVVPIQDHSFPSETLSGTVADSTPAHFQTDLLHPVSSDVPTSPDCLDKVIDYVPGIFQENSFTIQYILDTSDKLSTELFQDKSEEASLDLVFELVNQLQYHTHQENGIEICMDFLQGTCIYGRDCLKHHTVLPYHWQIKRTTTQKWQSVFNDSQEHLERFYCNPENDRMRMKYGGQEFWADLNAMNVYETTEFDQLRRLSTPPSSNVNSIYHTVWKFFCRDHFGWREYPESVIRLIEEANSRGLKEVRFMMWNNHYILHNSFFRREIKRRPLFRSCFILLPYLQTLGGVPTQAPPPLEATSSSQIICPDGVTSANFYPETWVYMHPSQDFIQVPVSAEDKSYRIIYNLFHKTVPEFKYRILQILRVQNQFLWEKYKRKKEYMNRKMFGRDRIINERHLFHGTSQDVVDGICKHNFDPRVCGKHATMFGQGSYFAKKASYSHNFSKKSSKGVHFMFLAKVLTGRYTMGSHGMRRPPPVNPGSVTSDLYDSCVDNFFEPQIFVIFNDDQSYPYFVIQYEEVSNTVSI

[3] = system: HARA (human lung squamous cell carcinoma) cells; assay: Cell proliferation assay (CellTiter-Glo), HARA; type: cell-based; conditions: read-out: HARA GI50
[4] = system: CT26 (mouse colon adenocarcinoma) cells; assay: Cell proliferation assay (CellTiter-Glo), CT26; type: cell-based; conditions: 6 days
[5] = target: PARP2 (Homo sapiens (Human), UniProt Q9UGN5); assay: PARP2 biochemical assay
PARP2, sequence (Q9UGN5 whole entry): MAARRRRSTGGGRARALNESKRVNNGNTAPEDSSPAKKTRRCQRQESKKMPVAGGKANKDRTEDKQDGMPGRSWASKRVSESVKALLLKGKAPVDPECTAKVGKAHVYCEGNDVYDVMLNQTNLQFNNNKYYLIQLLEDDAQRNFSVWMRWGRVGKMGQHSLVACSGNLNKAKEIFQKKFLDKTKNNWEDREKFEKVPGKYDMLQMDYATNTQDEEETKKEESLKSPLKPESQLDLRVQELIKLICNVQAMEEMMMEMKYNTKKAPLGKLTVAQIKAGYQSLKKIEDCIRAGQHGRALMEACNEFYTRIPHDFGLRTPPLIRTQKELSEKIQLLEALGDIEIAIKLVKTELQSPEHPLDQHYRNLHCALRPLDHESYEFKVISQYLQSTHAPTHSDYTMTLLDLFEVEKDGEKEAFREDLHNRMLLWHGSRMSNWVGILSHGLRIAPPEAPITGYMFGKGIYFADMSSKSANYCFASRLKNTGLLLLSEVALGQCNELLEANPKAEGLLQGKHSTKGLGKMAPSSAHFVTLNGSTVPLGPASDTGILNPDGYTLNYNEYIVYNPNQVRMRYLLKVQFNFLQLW

[6] = Homo sapiens, NCI-H1373, 144 h, 6 days, CellTiter-Glo
[7] = Homo sapiens, 144 h, 6 days, CellTiter-Glo

Compound	GI50 ([1]; 6 days, CellTiter-Glo)	IC50 [2]	GI50 ([3]; 6 days, CellTiter-Glo)	GI50 [4]	GI50 [1, 6]	GI50 [3, 7]	GI50 ([4]; Mus musculus, CT26, 144 h)	GI50 ([1]; Homo sapiens, NCI-H1373, 144 h)	IC50 ([5]; read-out: PARP2 IC50)	GI50 ([3]; Homo sapiens, 144 h)	IC50 [5]
6-Cyclobutoxy-4-(4-fluoro-3-(2-(hydroxymethyl)-4,5,6,7-tetrahydropyrazolo[1,5-a]pyrazine-5-carbonyl)benzyl)phthalazin-1(2H)-one [Example 168]	> 5000 nM	100 to 500 nM	> 5000 nM	> 5000 nM	–	–	–	–	–	–	–
N#Cc1ccc(N2CCN(C(=O)c3cc(Cc4n[nH]c(=O)c5ccc(OC6CCC6)cc45)ccc3F)[C@@H]3C[C@@H]32)nc1 (stereo in doubt) [Example 150, 6-(5-(5-((7-cyclobutoxy-4-oxo-3,4-dihydrophthalazin-1-yl)methyl)-2-fluorobenzoyl)-2,5-diazabicyclo[4.1.0]heptan-2-yl)nicotinonitrile]	–	< 50 nM	–	–	100 to 1000 nM	1000 to 5000 nM	1000 to 5000 nM	–	–	–	–
C#CCOc1ccc2c(=O)[nH]nc(Cc3ccc(F)c(C(=O)N4CCN(c5ccc(C#N)cn5)CC4)c3)c2c1 [Example 3, 6-(4-(2-fluoro-5-((4-oxo-7-(prop-2-yn-1-yloxy)-3,4-dihydrophthalazin-1-yl)methyl)benzoyl)piperazin-1-yl)nicotinonitrile]	–	< 50 nM	–	–	–	–	–	< 100 nM	< 50 nM	1000 to 5000 nM	–
COc1ccc2c(=O)[nH]nc(Cc3cccc(C(=O)N4CCN(c5ccc(C#N)cn5)CC4)c3)c2c1 [Example 4, 6-(4-(3-((7-Methoxy-4-oxo-3,4-dihydrophthalazin-1-yl)methyl)benzoyl)piperazin-1-yl)nicotinonitrile]	–	< 50 nM	–	–	< 100 nM	1000 to 5000 nM	100 to 1000 nM	–	–	–	–
N#Cc1ccc(N2CCN(C(=O)c3cc(Cc4n[nH]c(=O)c5ccc(OC6CCC6)cc45)ccc3F)CC2)nc1 [Example 14, 6-(4-(5-((7-Cyclobutoxy-4-oxo-3,4-dihydrophthalazin-1-yl)methyl)-2-fluorobenzoyl)piperazin-1-yl)nicotinonitrile]	–	< 50 nM	–	–	–	–	–	< 100 nM	–	1000 to 5000 nM	500 to 2000 nM
N#Cc1ccc(N2CCN(C(=O)c3cc(Cc4n[nH]c(=O)c5ccc(OC6CC(F)(F)C6)cc45)ccc3F)CC2)nc1 [Example 51, 6-(4-(5-((7-(3,3-Difluorocyclobutoxy)-4-oxo-3,4-dihydrophthalazin-1-yl)methyl)-2-fluorobenzoyl)piperazin-1-yl)nicotinonitrile]	–	< 50 nM	–	–	< 100 nM	> 5000 nM	1000 to 5000 nM	–	–	–	–
N#Cc1ccc(N2CCN(C(=O)c3cc(Cc4n[nH]c(=O)c5ccc(S(=O)(=O)C6CCC6)cc45)ccc3F)CC2)nc1 [Example 53, 6-(4-(5-((7-(cyclobutylsulfonyl)-4-oxo-3,4-dihydrophthalazin-1-yl)methyl)-2-fluorobenzoyl)piperazin-1-yl)nicotinonitrile]	–	100 to 500 nM	–	–	> 5000 nM	> 5000 nM	> 5000 nM	–	–	–	–
CC#Cc1ccc2c(=O)[nH]nc(Cc3ccc(F)c(C(=O)N4CCN(c5ccc(C#N)cn5)CC4)c3)c2c1OC [Example 81, 6-(4-(2-Fluoro-5-((8-methoxy-4-oxo-7-(prop-1-yn-1-yl)-3,4-dihydrophthalazin-1-yl)methyl)benzoyl)piperazin-1-yl)nicotinonitrile]	–	< 50 nM	–	–	< 100 nM	100 to 1000 nM	< 100 nM	–	–	–	–
COc1cc2c(Cc3ccc(F)c(C(=O)N4CCN(c5ccc(C#N)cn5)CC4)c3)n[nH]c(=O)c2cn1 [Example 91, 6-(4-(2-fluoro-5-((7-methoxy-4-oxo-3,4-dihydropyrido[4,3-d]pyridazin-1-yl)methyl)benzoyl)piperazin-1-yl)nicotinonitrile]	–	< 50 nM	–	–	1000 to 5000 nM	> 5000 nM	> 5000 nM	–	–	–	–
N#Cc1ccc(N2CCN(C(=O)c3cc(Cc4n[nH]c(=O)c5c(C(F)(F)F)cc(OC6CCC6)cc45)ccc3F)CC2)nc1 [Example 93, 6-(4-(5-((7-Cyclobutoxy-4-oxo-5-(trifluoromethyl)-3,4-dihydrophthalazin-1-yl)methyl)-2-fluorobenzoyl)piperazin-1-yl)nicotinonitrile]	–	< 50 nM	–	–	< 100 nM	1000 to 5000 nM	1000 to 5000 nM	–	–	–	–
N#Cc1ccc(N2CCCN(C(=O)c3cc(Cc4n[nH]c(=O)c5ccc(OC6CCC6)cc45)ccc3F)CC2)nc1 [Example 94, 6-(4-(5-((7-Cyclobutoxy-4-oxo-3,4-dihydrophthalazin-1-yl)methyl)-2-fluorobenzoyl)-1,4-diazepan-1-yl)nicotinonitrile]	–	< 50 nM	–	–	< 100 nM	1000 to 5000 nM	1000 to 5000 nM	–	–	–	–
COc1ccnc(N2CCN(C(=O)c3cc(Cc4n[nH]c(=O)c5ccc(OC6CCC6)cc45)ccc3F)CC2)c1 [Example 128, 6-cyclobutoxy-4-(4-fluoro-3-(4-(4-methoxypyridin-2-yl)piperazine-1-carbonyl)benzyl)phthalazin-1(2H)-one]	–	< 50 nM	–	–	100 to 1000 nM	1000 to 5000 nM	1000 to 5000 nM	–	–	–	–
N#Cc1ccc(N2CCN(C(=O)c3cc(Cc4n[nH]c(=O)c5ccc(OC6CCC6)cc45)ccc3F)CC2)nc1C(F)(F)F [Example 135, 6-(4-(5-((7-cyclobutoxy-4-oxo-3,4-dihydrophthalazin-1-yl)methyl)-2-fluorobenzoyl)piperazin-1-yl)-2-(trifluoromethyl)nicotinonitrile]	–	50 to 100 nM	–	–	100 to 1000 nM	> 5000 nM	> 5000 nM	–	–	–	–
Cc1cc(C#N)cnc1N1CCN(C(=O)c2cc(Cc3n[nH]c(=O)c4ccc(OC5CCC5)cc34)ccc2F)CC1 [Example 138, 6-(4-(5-((7-cyclobutoxy-4-oxo-3,4-dihydrophthalazin-1-yl)methyl)-2-fluorobenzoyl)piperazin-1-yl)-5-methylnicotinonitrile]	–	< 50 nM	–	–	100 to 1000 nM	1000 to 5000 nM	> 5000 nM	–	–	–	–
N#Cc1ccc(-c2nnc3n2CCN(C(=O)c2cc(Cc4n[nH]c(=O)c5ccc(OC6CCC6)cc45)ccc2F)C3)nc1 [Example 139, 6-(7-(5-((7-cyclobutoxy-4-oxo-3,4-dihydrophthalazin-1-yl)methyl)-2-fluorobenzoyl)-5,6,7,8-tetrahydro-[1,2,4]triazolo[4,3-a]pyrazin-3-yl)nicotinonitrile]	–	< 50 nM	–	–	100 to 1000 nM	1000 to 5000 nM	> 5000 nM	–	–	–	–
N#Cc1ccc(N2CC3(CN(C(=O)c4cc(Cc5n[nH]c(=O)c6ccc(OC7CCC7)cc56)ccc4F)C3)C2)nc1 [Example 148, 6-(6-(5-((7-cyclobutoxy-4-oxo-3,4-dihydrophthalazin-1-yl)methyl)-2-fluorobenzoyl)-2,6-diazaspiro[3.3]heptan-2-yl)nicotinonitrile]	–	500 to 2000 nM	–	–	> 5000 nM	> 5000 nM	> 5000 nM	–	–	–	–
N#Cc1ccc(N2CCCC23CN(C(=O)c2cc(Cc4n[nH]c(=O)c5ccc(OC6CCC6)cc45)ccc2F)C3)nc1 [Example 149, 6-(2-(5-((7-cyclobutoxy-4-oxo-3,4-dihydrophthalazin-1-yl)methyl)-2-fluorobenzoyl)-2,5-diazaspiro[3.4]octan-5-yl)nicotinonitrile]	–	500 to 2000 nM	–	–	> 5000 nM	> 5000 nM	> 5000 nM	–	–	–	–
N#Cc1cnc(N2CCN(C(=O)c3cc(Cc4n[nH]c(=O)c5ccc(OC6CCC6)cc45)ccc3F)CC2)nc1 [Example 154, 2-(4-(5-((7-cyclobutoxy-4-oxo-3,4-dihydrophthalazin-1-yl)methyl)-2-fluorobenzoyl)piperazin-1-yl)pyrimidine-5-carbonitrile]	–	< 50 nM	–	–	< 100 nM	1000 to 5000 nM	1000 to 5000 nM	–	–	–	–
O=C(c1cc(Cc2n[nH]c(=O)c3ccc(OC4CCC4)cc23)ccc1F)N1CCN(c2cc(C(F)(F)F)ccn2)CC1 [Example 156, 6-cyclobutoxy-4-(4-fluoro-3-(4-(4-(trifluoromethyl)pyridin-2-yl)piperazine-1-carbonyl)benzyl)phthalazin-1(2H)-one]	–	< 50 nM	–	–	100 to 1000 nM	1000 to 5000 nM	> 5000 nM	–	–	–	–
O=C(c1cc(Cc2n[nH]c(=O)c3ccc(OC4CCC4)cc23)ccc1F)N1CCN(c2ncc(C(F)F)cn2)CC1 [Example 157, 6-Cyclobutoxy-4-(3-(4-(5-(difluoromethyl)pyrimidin-2-yl)piperazine-1-carbonyl)-4-fluorobenzyl)phthalazin-1(2H)-one]	–	< 50 nM	–	–	< 100 nM	1000 to 5000 nM	1000 to 5000 nM	–	–	–	–
O=C(c1cc(Cc2n[nH]c(=O)c3ccc(OC4CCC4)cc23)ccc1F)N1CCN(c2ccc(C(F)(F)F)nn2)CC1 [Example 158, 6-cyclobutoxy-4-(4-fluoro-3-(4-(6-(trifluoromethyl)pyridazin-3-yl)piperazine-1-carbonyl)benzyl)phthalazin-1(2H)-one]	–	< 50 nM	–	–	1000 to 5000 nM	> 5000 nM	1000 to 5000 nM	–	–	–	–
O=C(c1cc(Cc2n[nH]c(=O)c3ccc(OC4CCC4)cc23)ccc1F)N1CCN(c2ccc(C(F)(F)F)nc2)CC1 [Example 159, 6-Cyclobutoxy-4-(4-fluoro-3-(4-(6-(trifluoromethyl)pyridin-3-yl)piperazine-1-carbonyl)benzyl)phthalazin-1(2H)-one]	–	< 50 nM	–	–	100 to 1000 nM	> 5000 nM	> 5000 nM	–	–	–	–
N#Cc1ccc(N2CCN(C(=O)c3cc(Br)cc(Cc4n[nH]c(=O)c5ccc(OC6CCC6)cc45)c3)CC2)nc1 [Example 178, 6-(4-(3-Bromo-5-((7-cyclobutoxy-4-oxo-3,4-dihydrophthalazin-1-yl)methyl)benzoyl)piperazin-1-yl)nicotinonitrile]	–	< 50 nM	–	–	100 to 1000 nM	1000 to 5000 nM	> 5000 nM	–	–	–	–
